Reference: publication PMC3914206

How the values were obtained:
Format in all cases: binding
Design in all cases: KINOMEscan: ABL1(F317L)-phosphorylated / KINOMEscan: ABL1(H396P)-nonphosphorylated / KINOMEscan: ABL1(H396P)-phosphorylated / KINOMEscan: ABL1(M351T)-phosphorylated / KINOMEscan: ABL1(T315I)-phosphorylated / KINOMEscan: ABL1-nonphosphorylated / KINOMEscan: ABL1-phosphorylated / KINOMEscan: ACVR2A / KINOMEscan: ACVR2B / KINOMEscan: ADCK3 / KINOMEscan: ADCK4 / KINOMEscan: AKT1 / KINOMEscan: AKT3 / KINOMEscan: ALK / KINOMEscan: ARK5 / KINOMEscan: AURKA / KINOMEscan: AURKC / KINOMEscan: BIKE / KINOMEscan: BMPR1A / KINOMEscan: BMPR1B / KINOMEscan: BMX / KINOMEscan: BRK / KINOMEscan: BRSK1 / KINOMEscan: BRSK2 / KINOMEscan: CAMK1 / KINOMEscan: CAMK1D / KINOMEscan: CAMK1G / KINOMEscan: CAMK2A / KINOMEscan: CAMK2B / KINOMEscan: AAK1 / KINOMEscan: CAMK2D / KINOMEscan: CAMK2G / KINOMEscan: ABL1(F317I)-nonphosphorylated / KINOMEscan: ABL1(F317I)-phosphorylated / KINOMEscan: ABL1(F317L)-nonphosphorylated: unit: % Ctrl
panel of 442 kinases [1] = molecular target: T1, panel of 442 kinases (Homo sapiens, UniProt Q8IWQ3); conditions: Compound Concentration 10 µM
T1 construct: purchased KINOMEscan
T1 sequence (Q8IWQ3 1-736): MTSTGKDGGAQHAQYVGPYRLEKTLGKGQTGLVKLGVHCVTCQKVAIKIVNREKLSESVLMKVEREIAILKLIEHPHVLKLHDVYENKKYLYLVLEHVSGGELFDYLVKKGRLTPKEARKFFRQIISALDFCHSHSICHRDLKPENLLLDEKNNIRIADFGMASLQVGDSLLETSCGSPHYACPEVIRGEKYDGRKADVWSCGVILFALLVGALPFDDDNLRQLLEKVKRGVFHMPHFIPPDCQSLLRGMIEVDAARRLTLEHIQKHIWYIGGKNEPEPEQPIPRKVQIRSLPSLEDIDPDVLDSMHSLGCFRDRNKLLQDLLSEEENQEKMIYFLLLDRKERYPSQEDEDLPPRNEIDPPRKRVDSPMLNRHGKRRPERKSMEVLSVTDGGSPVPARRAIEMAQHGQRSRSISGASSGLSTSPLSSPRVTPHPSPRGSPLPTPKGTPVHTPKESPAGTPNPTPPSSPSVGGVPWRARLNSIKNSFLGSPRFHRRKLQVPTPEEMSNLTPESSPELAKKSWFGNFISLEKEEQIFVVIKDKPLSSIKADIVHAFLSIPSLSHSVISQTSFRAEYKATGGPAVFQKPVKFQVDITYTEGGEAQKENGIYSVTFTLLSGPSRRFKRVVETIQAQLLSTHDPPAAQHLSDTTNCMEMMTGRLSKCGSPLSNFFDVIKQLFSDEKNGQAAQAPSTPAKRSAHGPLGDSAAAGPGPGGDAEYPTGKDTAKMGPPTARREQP
From the text: (§1) We assessed the selectivity of members of this scaffold using the KINOMEscan methodology across a near comprehensive panel of 442 kinases [[18,27]].

panel of 442 kinases [2] = molecular target: T2, panel of 442 kinases (Homo sapiens, UniProt P22607, G697C); conditions: Compound Concentration 10 µM
T2 construct: purchased KINOMEscan
From the text: as §1

panel of 442 kinases [3] = molecular target: T3, panel of 442 kinases (Homo sapiens, UniProt Q52WX2); conditions: kinase SBK1; compound concentration 10 µM
T3 construct: purchased KINOMEscan
From the text: as §1

T2 sequence (P22607 23-806 G697C): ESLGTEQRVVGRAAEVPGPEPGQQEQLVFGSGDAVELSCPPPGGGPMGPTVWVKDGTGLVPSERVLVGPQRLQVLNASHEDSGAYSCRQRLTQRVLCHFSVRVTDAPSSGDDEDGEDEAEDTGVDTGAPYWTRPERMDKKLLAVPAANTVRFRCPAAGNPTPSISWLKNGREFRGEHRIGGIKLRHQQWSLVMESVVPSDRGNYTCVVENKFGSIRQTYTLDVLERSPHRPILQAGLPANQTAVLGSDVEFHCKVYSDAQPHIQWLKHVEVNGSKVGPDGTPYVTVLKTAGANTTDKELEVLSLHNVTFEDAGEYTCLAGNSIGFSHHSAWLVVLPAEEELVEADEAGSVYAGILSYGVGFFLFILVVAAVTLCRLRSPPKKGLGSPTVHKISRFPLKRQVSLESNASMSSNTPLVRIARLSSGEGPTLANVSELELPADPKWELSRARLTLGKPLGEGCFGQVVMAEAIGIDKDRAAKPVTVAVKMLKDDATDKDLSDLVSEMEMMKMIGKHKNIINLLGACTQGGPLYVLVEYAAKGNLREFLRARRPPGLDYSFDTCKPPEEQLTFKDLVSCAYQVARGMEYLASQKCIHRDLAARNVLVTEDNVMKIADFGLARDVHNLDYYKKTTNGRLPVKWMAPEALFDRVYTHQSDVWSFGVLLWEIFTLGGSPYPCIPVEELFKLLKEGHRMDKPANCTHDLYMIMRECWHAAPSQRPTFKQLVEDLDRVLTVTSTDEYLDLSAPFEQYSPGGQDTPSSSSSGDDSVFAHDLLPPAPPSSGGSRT
T3 sequence (Q52WX2 whole entry): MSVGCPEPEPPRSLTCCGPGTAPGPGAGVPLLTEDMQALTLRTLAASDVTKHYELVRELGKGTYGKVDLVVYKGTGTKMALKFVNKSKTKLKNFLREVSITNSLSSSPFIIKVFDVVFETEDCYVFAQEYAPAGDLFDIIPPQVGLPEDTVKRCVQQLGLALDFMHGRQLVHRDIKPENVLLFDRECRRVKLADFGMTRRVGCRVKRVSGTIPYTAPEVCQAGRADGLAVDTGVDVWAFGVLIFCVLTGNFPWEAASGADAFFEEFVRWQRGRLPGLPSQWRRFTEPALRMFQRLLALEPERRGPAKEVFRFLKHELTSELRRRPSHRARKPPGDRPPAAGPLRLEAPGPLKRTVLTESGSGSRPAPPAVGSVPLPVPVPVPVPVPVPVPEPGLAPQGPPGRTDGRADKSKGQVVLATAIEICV

Row | SMILES | KINOMEscan: BRSK2 (panel of 442 kinases [1]) | KINOMEscan: FGFR3(G697C) (panel of 442 kinases [2]) | % Ctrl, SBK1 (panel of 442 kinases [3]) [% Ctrl]
1 | COc1cc(C(=O)N2CCC(N3CCN(C)CC3)CC2)ccc1Nc1ncc2c(n1)N(C)c1ccccc1C(=O)N2C [15 (LRRK2-IN-1)] | 64 | 85 | 100
2 | COc1cc(C(=O)N2CCC(N3CCN(C)CC3)CC2)ccc1Nc1ncc2c(n1)N1CCc3cccc(c31)C(=O)N2C [Compound 24] | 81 | 80 | 80
3 | COc1cc(C(=O)N2CCC(N3CCN(C)CC3)CC2)ccc1Nc1ncc2c(n1)N(C1CCCC1)c1ccccc1C(=O)N2C [Compound 25, 11-cyclopentyl-2-((2-methoxy-4-(4-(4-methylpiperazin-1-yl)piperidine-1-carbonyl)phenyl)amino)-5-methyl-5H-benzo[e]pyrimido[5,4-b][1,4]diazepin-6(11H)-one] | 80 | 100 | 72
4 | CCOc1cc(C(=O)N2CCC(N3CCN(C)CC3)CC2)ccc1Nc1ncc2c(n1)N(C1CCCC1)c1ccccc1C(=O)N2C [Compound 26] | 92 | 100 | 99
